Assay results as given in patent publication US20240262727A1, “METHOD FOR IMPROVING BIOLOGICAL NITROGEN REMOVAL EFFECT OF LOW-TEMPERATURE SEWAGE” (Sichuan University, priority 2023, published 2024).

Columns and labels:
[1] = test system: activated sludge and biofilm phases; test: EPS and ATP of the activated sludge and biofilm phases of the MBBR
Procedure: The EPS concentration in the sludge phase was 46.12±4.8 mg/g·VSS, and the intracellular ATP was 1273.11±5.4 ngATP/mL; the EPS concentration in the biofilm phase was 53.34±3.7 mg/g. VSS, and the microbial activity concentration of a single filler was 20.67±0.22 ngATP/piece.

[2] = test system: activated sludge; test: Activated sludge SBR reactor, biological nitrogen removal with added AHLs signal molecule
Procedure: A system to be treated was cooled to 10° C., and an activated sludge SBR reactor was adopted with an effective volume of 1 L and an MLSS of 4,000 mg/L.
Incoming influent: COD: 250 mg/L, ammonia-nitrogen concentration (NH4^+—N): 30 mg/L, TP: 1.5 mg/L, pH=7-8.
12 h was an operation cycle, including 2.5 h of anoxic phase, 8 h of aerobic phase, and 1.5 h of standing. The anoxic phase had dissolved oxygen (DO) maintained below 0.5 mg/L, and the aerobic phase had DO>2.5 mg/L.
An N-butanoyl-homoserine lactone stock solution with a concentration of 10 mg/L, which was added every 2 operation cycles following the influent.
This example differed from Example 1 in that the treatment system was cooled to 7° C., and after the operation was stable, the water temperature was further lowered to 4° C.

[3] = test system: activated sludge-biofilm composite system; test: Activated sludge-biofilm composite MBBR reactor at 6° C., pollutant removal efficiency
Procedure: (2) The hydraulic retention time was 20 h, and an effluent from the reactor was collected to detect the pollutant removal efficiency. After a short period of adaptation, the COD concentration in the reactor effluent dropped below 50 mg/L, and the removal efficiency was always maintained at 85%. After adding the C4-HSL, the nitrogen removal effect gradually became more prominent. On the 16th day, the effluent ammonia-nitrogen concentration dropped below 8 mg/L (a maximum allowable emission concentration of ammonia-nitrogen from most urban sewage treatment plants at a water temperature of below 12° C.) to 6.77 mg/L, and the removal efficiency was 71.86%. On the 51st day, the ammonia-nitrogen concentration in the effluent dropped to almost 0, and the removal efficiency was greater than 99%.
There were three stages: increasing COD from 160 mg/L to 500 mg/L (260, 400, 500 mg/L); increasing ammonia-nitrogen concentration from 25 mg/L to 75 mg/L (40, 65, 75 mg/L); increasing TP from 2 mg/L to 8.5 mg/L (4, 6, 8.5 mg/L).
(§1) The C4-HSL with a concentration of 100 μg/L was added to the influent. The rest steps were the same as those in Example 5.

[4] = test system: biofilm on the filler; test: Single biofilm MBBR at low temperature (sludge discharged on 18th day), pollutant removal and community structure
Procedure: as §1
The hydraulic retention time was 18 h, the rest steps were the same as those Example 1, and the COD removal efficiency was 85%; after the reactor was drained of sludge, the nitrification effect dropped sharply.

[5] = test system: activated sludge; test: Activated sludge SBR reactor, biological nitrogen removal with added AHLs signal molecule; conditions: for MLSS lower than that of the control group (without C4-HSL added): 4° C.; for MLSS of the reactor lower than that of the control group (without C4-HSL): after stable operation
[6] = test system: activated sludge-biofilm composite system; test: Activated sludge-biofilm composite MBBR reactor at 6° C., pollutant removal efficiency; conditions: 100 μg/L, HRT 18 h
[7] = test system: microbial community of the activated sludge; test: High-throughput sequencing / metagenomics of SBR activated sludge (microbial community and functional genes); conditions: for relative content of Nakamurella (nitrifying bacteria): 17.46% without
Procedure: After the treatment effect was stable, high-throughput sequencing was conducted on the activated sludge to analyze a composition of the microbial community. […] The increased abundance of functional bacteria and functional genes in the activated sludge SBR reactor improved the nitrogen removal effect of this reactor.

[8] = 40 μg/L, 6° C., after treatment effect stable
[9] = 100 μg/L, 6° C., after treatment effect stable
[10] = 100 μg/L, after raising influent in three stages
[11] = 100 μg/L, after reactor drained of sludge
[12] = room temperature, 0, 10, 100 μg/L, after 74 cycles

CCCC(=O)N[C@H]1CCOC1=O [C4-HSL, N-butanoyl-L-homoserine lactone]
EPS concentration in the biofilm phase [1, 8]: 53.34±3.7 mg/g. VSS | EPS concentration in the sludge phase [1, 8]: 46.12±4.8 mg/g·VSS | intracellular ATP (sludge phase) [1, 8]: 1273.11±5.4 ngATP/mL | microbial activity concentration of a single filler [1, 8]: 20.67±0.22 ngATP/piece | EPS concentration in the activated sludge phase ([1]; 40 μg/L, third stage influent): 127.07±4.5 mg/g·VSS | EPS concentration in the biofilm phase ([1]; 40 μg/L, third stage influent): 113.70±2.59 mg/g. VSS | intracellular ATP (sludge phase) ([1]; 40 μg/L, third stage influent): 1709.78±4.1 ngATP/mL | microbial activity concentration of a single filler ([1]; 40 μg/L, third stage influent): 113.99±0.67 ngATP/mL | EPS concentration in activated sludge phase [1, 9]: 80.62±3.1 mg/g·VSS | EPS concentration in biofilm phase [1, 9]: 96.74±2.8 mg/g·VSS | intracellular ATP (sludge phase) [1, 9]: 2441.01±7.2 ngATP/mL | microbial activity concentration of a single filler [1, 9]: 26.56±0.42 ngATP/piece | EPS concentration in activated sludge phase [1, 10]: 380.38±5.7 mg/g·VSS | EPS concentration in biofilm phase [1, 10]: 235.18±3.5 mg/g·VSS | intracellular ATP (sludge phase) [1, 10]: 5868.42±8.9 ngATP/mL | microbial activity concentration of a single filler [1, 10]: 113.99±0.67 ngATP/mL | average NH4+—N removal efficiency ([2]; 10 μg/L, 4° C. (Example 3)): 99.3% | MLSS lower than that of the control group (without C4-HSL added) ([2]; 10 μg/L, 7° C.): 22% | average NH4+—N removal efficiency ([2]; 10 μg/L, 7° C., after stabilization (Example 3)): 96.9% | MLSS lower than that of the control group (without C4-HSL added) ([2]; 100 μg/L, 7° C.): 19% | average NH4+—N removal efficiency ([2]; 100 μg/L, 7° C., after stabilization (Example 4)): 96.3% | ammonia-nitrogen removal efficiency ([3]; 40 μg/L, 6° C., 16th day): 71.86% | effluent ammonia-nitrogen concentration ([3]; 40 μg/L, 6° C., 16th day, influent 25 mg/L): 6.77 mg/L | ammonia-nitrogen concentration in the effluent ([3]; 40 μg/L, 6° C., 51st day): ~0 | ammonia-nitrogen removal efficiency ([3]; 40 μg/L, 6° C., 51st day): greater than 99% | COD removal efficiency ([3]; 40 μg/L, 6° C., HRT 20 h): 85% | COD concentration in the reactor effluent ([3]; 40 μg/L, 6° C., HRT 20 h, influent COD 160 mg/L (Example 5)): below 50 mg/L | effluent COD concentration ([3]; 40 μg/L, 6° C., third stage influent COD 500, ammonia-nitrogen 75, TP 8.5 mg/L, 234th day): below 50 mg/L | TN removal efficiency ([3]; 40 μg/L, third stage influent): not less than 80% | effluent total nitrogen (TN) concentration ([3]; 40 μg/L, third stage influent): 12 mg/L | COD removal efficiency ([3]; 40 μg/L, third stage influent, 234th day): 95% | effluent ammonia-nitrogen removal efficiency ([3]; 100 μg/L, after raising influent in three stages (COD 500, ammonia-nitrogen 75, TP 8.5 mg/L)): not less than 99% | COD removal efficiency ([4]; 100 μg/L, HRT 18 h, sludge discharged on 18th day (Comparative Example 7)): 85% | ammonia-nitrogen removal efficiency [4, 11]: 40% | effluent ammonia-nitrogen concentration [4, 11]: 12 mg/L | growth and enrichment of Bacteroidetes and Actinobacteria on the filler ([4]; low temperature conditions): beneficial to promote the growth and enrichment | nitrification effect of a single biofilm system ([4]; low temperature, single biofilm system): could not quickly improve | COD removal efficiency ([5]; 10 μg/L added every 2 cycles, 10° C. (Example 1)): 90% | MLSS lower than that of the control group (without C4-HSL added) ([5]; 10 μg/L): 40% | TN average effluent concentration ([5]; 10 μg/L, 10° C. (Example 1)): 11.40 mg/L | average NH4+—N removal efficiency ([5]; 10 μg/L, 10° C. (Example 1)): 99.69% | cycles after which TN removal efficiency reached stability ([5]; 10 μg/L, 10° C. (Example 1)): 27 cycles | TN average removal efficiency ([5]; 10 μg/L, 10° C., after stability (Example 1)): 64.97% | MLSS of the reactor lower than that of the control group (without C4-HSL) ([5]; 10 μg/L, 10° C.): 2% | MLSS lower than that of the control group (without C4-HSL added) ([5]; 100 μg/L): 38% | average NH4+—N removal efficiency ([5]; 100 μg/L, 4° C. (Example 4)): 98.8% | TN average effluent concentration ([5]; 100 μg/L, 10° C.): 12.86 mg/L | cycles after which TN removal efficiency reached stability ([5]; 100 μg/L, 10° C.): 27 cycles | COD removal efficiency ([5]; 100 μg/L, 10° C. (Example 2)): 90% | average NH4+—N removal efficiency ([5]; 100 μg/L, 10° C. (Example 2)): 99.85% | TN average removal efficiency ([5]; 100 μg/L, 10° C., after stability): 60.46% | MLSS of the reactor lower than that of the control group (without C4-HSL) ([5]; 100 μg/L, 10° C.): 12% | TN removal efficiency and NH4+—N removal efficiency compared with not adding C4-HSL ([5]; low temperatures, Example 1 vs Comparative Example 1, FIG. 1 and 2): significantly improved | effect of adding C4-HSL on the nitrogen removal effect ([5]; room temperature): little effect | ammonia-nitrogen removal efficiency [5, 12]: not less than 99% | effluent TN [5, 12]: not more than 15 mg/L | effluent ammonia-nitrogen concentration [5, 12]: around 0.1 mg/L | removal efficiency of COD [5, 12]: not less than 90% | ammonia-nitrogen removal efficiency ([6]; 5th day): 77.43% | effluent ammonia-nitrogen concentration ([6]; 5th day (Example 6)): 5.85 mg/L | ammonia-nitrogen removal efficiency ([6]; 12th day): greater than 99% | abundance of CS gene (TCA cycle) ([7]; 10 μg/L, 10° C.): 0.017% | abundance of complete nitrifying bacterium Nitrospira ([7]; 10 μg/L, 10° C.): 0.100% | abundance of decomposition genes related to QS ([7]; 10 μg/L, 10° C.): 1.92% | abundance of denitrifying bacterium Dechloromonas ([7]; 10 μg/L, 10° C.): 0.246% | abundance of denitrifying bacterium Denitratisoma ([7]; 10 μg/L, 10° C.): 0.189% | abundance of fum gene (TCA cycle) ([7]; 10 μg/L, 10° C.): 0.018% | abundance of regulatory genes related to QS ([7]; 10 μg/L, 10° C.): 2.40% | abundance of sdh gene (TCA cycle) ([7]; 10 μg/L, 10° C.): 0.030% | abundance of transport genes related to QS ([7]; 10 μg/L, 10° C.): 7.75% | abundance of ammonia-oxidizing bacterium MND1 ([7]; 10 μg/L, 10° C. (Example 1)): 0.007% | share of complete nitrification process in nitrogen metabolism ([7]; 10 μg/L, 10° C., metagenomic): 12.53% | abundance of CS gene (TCA cycle) ([7]; 100 μg/L, 10° C.): 0.021% | abundance of Nitrospira ([7]; 100 μg/L, 10° C.): 0.222% | abundance of ammonia-oxidizing bacterium MND1 ([7]; 100 μg/L, 10° C.): 0.005% | abundance of decomposition genes related to QS ([7]; 100 μg/L, 10° C.): 2.50% | abundance of fum gene (TCA cycle) ([7]; 100 μg/L, 10° C.): 0.021% | abundance of heterotrophic nitrifying-aerobic denitrifying bacterium (Microbacterium) ([7]; 100 μg/L, 10° C.): 0.463% | abundance of mdh gene (TCA cycle) ([7]; 100 μg/L, 10° C.): 0.011% | abundance of nitrification gene nxr ([7]; 100 μg/L, 10° C.): 0.027% | abundance of nitrogen removal gene nirK ([7]; 100 μg/L, 10° C.): 0.015% | abundance of regulatory genes related to QS ([7]; 100 μg/L, 10° C.): 2.98% | abundance of sdh gene (TCA cycle) ([7]; 100 μg/L, 10° C.): 0.040% | abundance of transport genes related to QS ([7]; 100 μg/L, 10° C.): 9.22% | share of complete nitrification process in nitrogen metabolism ([7]; 100 μg/L, 10° C.): 13.82% | total abundance of 11 species of denitrifying bacteria ([7]; 100 μg/L, 10° C.): 16.53% | abundance of ammonia-oxidizing bacterium Ellin6067 ([7]; 100 μg/L, 10° C. (Example 2)): 0.393% | relative abundance of Arthrobacter, Nakamurella, Micrococcaceae and Nitrosomonas ([7]; 4° C., after system stable): promoted the increase | relative abundance of TM7a, Nakamurella, Tessaracoccus and Ferruginibacter ([7]; 7° C., after system stabilized): increased | effect on Actinobacteriota and Gemmatimonadota ([7]; room temperature): inhibition at low concentrations and promotion at high concentrations | relative content of Nakamurella (nitrifying bacteria) ([7]; room temperature, high-concentration C4-HSL): 20.79% | relative content of Nakamurella (nitrifying bacteria) ([7]; room temperature, low-concentration C4-HSL): 16.66% | growth and reproduction of Patescibacteria ([7]; room temperature, effect increased with concentration): promote | growth of Proteobacteria and Bacteroidota (phylum level) ([7]; room temperature, stronger at higher concentration): inhibited
